Data from the OligoGym collection.
After the bases stand the sugars from the 5' end (letter, count) and the backbone: PS all phosphorothioate, else s phosphorothioate and o phosphodiester by linkage. Methylation of C is not given here. e = 2'-O-(2-methoxyethyl) (MOE); k = constrained ethyl (cEt); d = 2'-deoxy (DNA); m = 2'-O-methyl

Biological target: HSD17B13
Settings: ASO, HepaRG

Row | Sequence | target mRNA inhibition (1 µM) [%] | further results
1 | GTGCATCTTAAGATAC (sugars k3 d1 m1 d8 k3, PS) | 40 | –
2 | GTGCCAAACCAATGTT (sugars k3 d9 k3 e1, PS) | 56 | –
3 | GTGCTAAGTAGTAATT (sugars k3 d10 k3, PS) | 58 | –
4 | GTGGATTACATACAAG (sugars k3 d10 k3, PS) | 57 | –
5 | GTGGCATGGCTACAGA (sugars k3 d1 m1 d8 k3, PS) | 49 | –
6 | GTGTAAATAAGTTCTC (sugars k3 d10 k3, PS) | 61 | –
7 | GTTAAAACTTCATTCC (sugars k3 d10 k3, PS) | 5 | –
8 | GTTAACCTGCAGCAGA (sugars k3 d10 k3, PS) | 51 | –
9 | GTTACATCACCCACTT (sugars k3 d10 k3, PS) | 41 | –
10 | GTTAGAATAGTCTTCA (sugars k3 d1 m1 d8 k3, PS) | 42 | –
11 | GTTAGCAAAACACTTG (sugars k3 d10 k3, PS) | 71 | target mRNA inhibition (0.02 µM): 1%; target mRNA inhibition (0.078 µM): 15%; target mRNA inhibition (0.313 µM): 44%; target mRNA inhibition (1.25 µM): 68%; target mRNA inhibition (5 µM): 81%
12 | GTTAGTATAGTTATCT (sugars k3 d1 m1 d8 k3, PS) | 52 | –
13 | GTTAGTATAGTTATCT (sugars k3 d9 k3 e1, PS) | 71 | –
14 | GTTAGTATAGTTATCT (sugars k3 d10 k3, PS) | 66 | target mRNA inhibition (0.02 µM): 0%; target mRNA inhibition (0.078 µM): 17%; target mRNA inhibition (0.313 µM): 40%; target mRNA inhibition (1.25 µM): 74%; target mRNA inhibition (5 µM): 86%
15 | GTTATTCTCTTGACAA (sugars k3 d10 k3, PS) | 42 | –
16 | GTTCTGATGTCAGACC (sugars k3 d10 k3, PS) | 55 | –
17 | GTTCTTGTTGATATTC (sugars k3 d10 k3, PS) | 84 | target mRNA inhibition (0.02 µM): 35%; target mRNA inhibition (0.078 µM): 51%; target mRNA inhibition (0.313 µM): 77%; target mRNA inhibition (1.25 µM): 92%; target mRNA inhibition (5 µM): 96%
18 | GTTCTTGTTGATATTC (sugars kkdddddddddkekek, PS) | 66 | –
19 | GTTCUTGTTGATATTC (sugars k3 d1 m1 d8 k3, PS) | 70 | –
20 | GTTGACCTCAAATGTC (sugars k3 d10 k3, PS) | 0 | –
21 | GTTGAGTAGTGTAAGC (sugars k3 d10 k3, PS) | 53 | –

Row | Sequence | target mRNA inhibition (1 µM) [%] | further results
22 | GTTGCACCGTTTTGGG (sugars k3 d9 k3 e1, PS) | 45 | –
23 | GTTGCACCGTTTTGGG (sugars k3 d10 k3, PS) | 56 | –
24 | GTTGTTAATGTAGTGT (sugars k3 d10 k3, PS) | 77 | target mRNA inhibition (0.02 µM): 0%; target mRNA inhibition (0.078 µM): 18%; target mRNA inhibition (0.313 µM): 42%; target mRNA inhibition (1.25 µM): 67%; target mRNA inhibition (5 µM): 90%
25 | GTTTAACTTTCCTCCG (sugars k3 d10 k3, PS) | 30 | –
26 | GTTTACAAGTAAGAAC (sugars k3 d10 k3, PS) | 42 | –
27 | GTTTAGAAGTCAAACG (sugars k3 d10 k3, PS) | 0 | –
28 | GTTTAGCAATTTAGCA (sugars k3 d10 k3, PS) | 50 | –
29 | GTTTTATAACTGAGCT (sugars k3 d10 k3, PS) | 84 | target mRNA inhibition (0.02 µM): 16%; target mRNA inhibition (0.078 µM): 29%; target mRNA inhibition (0.313 µM): 53%; target mRNA inhibition (1.25 µM): 84%; target mRNA inhibition (5 µM): 85%
30 | GTTTTGATACCAGTTT (sugars k3 d10 k3, PS) | 67 | –
31 | GTTTTGGGCTAATGAA (sugars k3 d9 k3 e1, PS) | 47 | –
32 | GTTTTGGGCTAATGAA (sugars k3 d10 k3, PS) | 54 | –
33 | GTTTTGGGCTAATGAA (sugars kkdddddddddkekek, PS) | 42 | –
34 | GTTTTTCTCTTGACAA (sugars k3 d10 k3, PS) | 59 | –
35 | TAAAATAGAGTCGGTC (sugars kkdddddddddkekek, PS) | 68 | –
36 | TAAACATCTCTGGGAC (sugars k3 d1 m1 d8 k3, PS) | 49 | –
37 | TAAACCCTGGAGCAGC (sugars k3 d10 k3, PS) | 66 | –
38 | TAAACCTTCCCTGTGT (sugars k3 d9 k3 e1, PS) | 23 | –
39 | TAAACCTTCCCTGTGT (sugars k3 d10 k3, PS) | 17 | –
40 | TAAAGCAGGCTACTTT (sugars k3 d10 k3, PS) | 9 | –
41 | TAAAGCTGCCTGCTGA (sugars k3 d10 k3, PS) | 44 | –
